Experimental data reported in patent US7371779B2, “Synergistic compositions of N-acylhomoserine lactones and 4-quinolones” (The Secretary of State for Defense Science and Technology, priority 2001, dated 2008).
Like-named read-outs stand apart in the source and are kept apart here.

Columns and labels:
[1] = tested on: murine splenocytes; assay: ConA mitogen-stimulated proliferation of murine splenocytes ([3H]-thymidine incorporation); type: cell-based, mouse (BALB/c); conditions: for IC50: ConA 1 μg/ml, 100,000 spleen cells, Experiment I, read-out: IC50 in inhibition of ConA induced murine splenocyte proliferation
Experimental: (§1) Proliferation was assessed by the incorporation of [^3H]-thymidine into DNA. Eight-week-old female BALB/c mice were obtained from Harlan (Bicester, Oxon, UK) and given food and water ad libitum. Splenocyte suspensions were prepared by removing the spleens and placing them into RPMI 1640 medium. The spleens were forced through 70-μm-pore-size wire gauzes using the plunger from a 5-ml syringe to produce a single cell suspension. The cells were pelleted by centrifugation, and erythrocytes were lysed with 0.017 M Tris, 0.144 M ammonium chloride buffer, pH 7.2. Leucocytes were washed twice with RPMI 1640 medium with 2% (vol/vol) foetal calf serum (FCS) and resuspended in complete cell culture medium (CTCM) consisting of RPMI 1640 medium with 5% FCS, 2 mM L-glutamine, and 5×10^−5 M 2-mercaptoethanol. HSL compounds were tested at doubling down dilutions ranging from 1 mM to 0.1 μM in a final volume of 200 μl of CTCM, containing ConA (Sigma, Poole, UK) at 1 μg/ml and 100,000 spleen cells. Following incubation for 48 h at 37° C. in 5% CO2-air, 0.25 μCi [^3H]-thymidine (Amersham) in 10 μl volume made up in RPMI 1640 medium was added and the cells were incubated for a further 24 h. Cells were harvested onto fibreglass filters with a Packard filtermate harvester. After the addition of 25 μl of MicroScint-O (Packard) to each well the filters were counted with the Packard TopCount scintillation counter.
(§2) Mitogen (Concanavalin A) induced murine splenocyte proliferation was indicated by the incorporation of tritated thymidine into the DNA in the mouse spleen cells as shown by counts per minute using the scintillation counter. The inhibitory effect of an HSL compound being tested on cell proliferation was indicated by a reduction in counts per minute.
as §1, with “70 μm pore size” for “70-μm-pore-size”, “5 ml” for “5-ml”, “The title compound was” for “HSL compounds were”, “dilutions” for “dilutions ranging from 1 mM to 0.1 μM in a final volume of 200 μl of CTCM,”, “g/ml” for “μg/ml”, “COrair,” for “CO2-air,”
as §2, with “the title” for “an HSL”

[2] = tested on: human PBMC; assay: ConA mitogen-stimulated proliferation of human PBMC ([3H]-thymidine incorporation); type: cell-based; conditions: for IC50: Experiment II, read-out: IC50 in inhibition of ConA induced cell proliferation of PBMC
Experimental: Blood specimens were obtained with consent from healthy human volunteers. Human peripheral blood mononuclear cells (PBMC) were isolated from heparinised whole blood by buoyant density centrifugation over Histopaque 1077 (Sigma, Poole, UK) at 600 g for 20 minutes. PBMC harvested from the ‘buffy’ layers were washed twice with RPMI 1640 medium and resuspended in CTCM. […] Human PBMC were incubated for 48 h at 37° C. in 5% CO2-air, followed by pulsing with 0.25 μCi [^3H]-thymidine (see above). After a further incubation of 24 h cells were harvested onto fibreglass filters and then counted in the presence of MicroScint-O with the Packard TopCount.
Concanavalin induced cell proliferation of human peripheral blood mononuclear cells (PBMC) was tracked, as described in I above, by a measurement of counts per minute using the scintillation counter. The inhibitory effect of an HSL compound being tested on cell proliferation was indicated by a reduction in counts per minute. […] Columns B, C and D represent different sources of human PBMC samples used.
Plots of counts per minute (cpm) against the concentration of the quorum sensing molecules and the vehicle are shown in FIG. 11.

[3] = tested on: TNF-alpha; assay: TNF-alpha production from LPS-stimulated human PBMC (sandwich ELISA); type: cell-based; conditions: for IC50: Experiment III, read-out: IC50 in inhibition of LPS induced production of TNF-α by human PBMC; for inhibition of LPS induced TNF-α production by human PBMC, in words: LPS-stimulated human PBMC
Experimental: Bacterial lipopolysaccharide (LPS) stimulates the production of a variety of cytokines, including TNF-alpha, from human PBMC; these cytokines in turn influence the development of T cells, supporting a T helper 1 conducive milieu. Human PBMC prepared from whole blood by buoyant density centrifugation were resuspended in CTCM. […] Following incubation for 24 h at 37° C. in 5% CO2-air, the cell culture supernatants were collected and tested for TNF-alpha levels by ‘sandwich’ ELISA. Briefly, 96-well Nunc MaxiSorp (Life Technologies, Paisley, UK) plates were coated with 50 μl of a 2 μg/ml solution of mouse anti-human TNF-alpha monoclonal antibody (Pharmingen, UK) in 0.05 M carbonate/bicarbonate buffer, pH 9.6 overnight at 4° C. After washing the plates three times with PBS-Tween, which contained phosphate buffered saline (PBS) with 0.5% (vol/vol) Tween 20 (Sigma, Poole, UK), the plates were blocked with 1% (wt/vol) bovine serum albumin (BSA) (Sigma, Poole, UK) at room temperature for 2 h. Following three washes with PBS-Tween, 50 μl of cell culture supernatants were added and incubated overnight at 4° C.; standard human TNF-alpha (Pharmingen, UK) ranging from 2000 to 31.25 pg/ml were included for each plate. After four washes with PBS-Tween, 50 μl of a second antibody, biotinylated mouse anti-human TNF-alpha monoclonal antibody (Pharmingen, UK) was added at 0.5 μg/1 ml diluted in 1% BSA in PBS-Tween and incubated at room temperature for 1 h. Following four washes, the bound biotinylated antibody was detected with 50 μl of a 1:1,000 dilution of Streptavidin-peroxidase (Pharmingen, UK). At the end of an hour incubation at room temperature, the plates were thoroughly washed six times with PBS-Tween and the assay was developed by the addition of 100 μl of 0.1 mg/ml of tetramethyl benzidine subtrate (Sigma, Poole, UK) in 0.1 M sodium acetate buffer, pH 6 containing 0.03% H2O2. The enzyme reaction was stopped with 50 μl of 2.5 M H2SO4 after an incubation of 10 minutes at room temperature and the development was read at 450 nm with a spectrophotometric 96-well plate reader (Dynex).

Q: Which results are given for `CCCCCCCCC(=O)CC(=O)N[C@H]1CCOC1=O` [Example 1, N-(3-oxoundecanoyl)-L-homoserine lactone]?
A: IC50 [1]: 9 µM; IC50 ([2]; human PBMC source B): 63 µM; IC50 ([2]; human PBMC source C): 13 µM; IC50 ([2]; human PBMC source D): 44 µM

Q: Which results are given for `CCCCCCCCCCCC(=O)CC(=O)N[C@H]1CCOC1=O` [Example 11, N-(3-Oxotetradecanoyl)-L-homoserine lactone]?
A: IC50 [1]: 6 µM; inhibition of ConA induced proliferation of human PBMC (cpm), in words ([2]; ConA 1 μg/ml): inhibited proliferation of human PBMC; IC50 ([2]; human PBMC source B): 32 µM; IC50 ([2]; human PBMC source C): 12 µM; IC50 ([2]; human PBMC source D): 30 µM; IC50 [3]: 35 µM; inhibition of LPS induced TNF-α production by human PBMC, in words [3]: inhibited the secretion

Q: Which results are given for `COC(=O)CCCCCCCCCCC(=O)CC(=O)N[C@H]1CCOC1=O` [Example 13, N-(13-Methoxycarbonyl-3-oxotridecanoyl)-L-homoserine lactone]?
A: IC50 [1]: 6 µM; IC50 ([2]; human PBMC source B): 15 µM; IC50 ([2]; human PBMC source D): 20 µM

Q: `CCCCCCC=CCCCC(=O)CC(=O)N[C@H]1CCOC1=O` [Example 14, N-(3-Oxo-7-tetradecenoyl)-L-homoserine lactone] was tested. Which IC50 [1] did it give?
A: The IC50 was 17 µM.

Q: Which IC50 [1] does the source give for `CN(C)C(=O)CCCCCCCCC(=O)CC(=O)N[C@H]1CCOC1=O` [Example 20, N-[11-(N,N-Dimethylcarbamoyl)-3-oxoundecanoyl]-L-homoserine lactone] here?
A: Its IC50 is 35 µM.

Q: Which IC50 [1] does the source give for `CCCCCCCCCC(O)CC(=O)N[C@H]1CCOC1=O` (stereo partly drawn) [Example 21, N-(3-Hydroxydodecanoyl)-L-homoserine lactone] here?
A: The IC50 was 12 µM.

Q: Which results are given for `COC(=O)CCCCCCC(=O)CC(=O)N[C@H]1CCOC1=O` [Example 4, N-(10-Methoxycarbonyl-3-oxodecanoyl)-L-homoserine lactone]?
A: IC50 [1]: 73 µM; IC50 ([2]; human PBMC source B): 20 µM; IC50 ([2]; human PBMC source D): 63 µM

Q: Which IC50 [1] does the source give for `O=C(CCCCCCCCCO)CC(=O)N[C@H]1CCOC1=O` [Example 19, N-(12-Hydroxy-3-oxododecanoyl)-L-homoserine lactone] here?
A: The IC50 was 9 µM.

Q: And the IC50 [3]?
A: The IC50 was 70 µM.

Q: `C=CCCCCCCCCC(=O)CC(=O)N[C@H]1CCOC1=O` [Example 10, N-(3-Oxo-12-tridecenoyl)-L-homoserine lactone] was tested. Which IC50 [1] did it give?
A: The IC50 was 7 µM.

Q: With `O=C(CCCCCCCCCCBr)CC(=O)N[C@H]1CCOC1=O` [Example 9, N-(13-Bromo-3-oxotridecanoyl)-L-homoserine lactone] as the molecule, how does the IC50 [1] read?
A: The IC50 was 3 µM.

Q: And the IC50 ([2]; human PBMC source B)?
A: The IC50 was 8 µM.

Q: What about the IC50 ([2]; human PBMC source D) of the same molecule?
A: The IC50 was 12 µM.

Q: How did the IC50 [1] turn out when `CCC=CCCCCCCCC(=O)CC(=O)N[C@H]1CCOC1=O` [Example 17, N-(3-Oxo-11-tetradecenoyl)-L-homoserine lactone] was run?
A: Its IC50 is 12 µM.

Q: Which “inhibition of ConA induced murine splenocyte proliferation (cpm), in words” value ([1]; ConA 1 μg/ml, BALB/c splenocytes) does the source give for `CCCCCC(=O)CC(=O)N[C@H]1CCOC1=O` [OOHL, N-(3-oxooctanoyl)-L-homoserine lactone, reference compound] here?
A: The value was “failed to inhibit proliferation”.

Q: With `O=C(CCCCCCCCBr)CC(=O)N[C@H]1CCOC1=O` [Example 2, N-(11-Bromo-3-oxoundecanoyl)-L-homoserine lactone] as the molecule, how does the IC50 [1] read?
A: The IC50 was 6 µM.

Q: What about the IC50 ([2]; human PBMC source B) of the same molecule?
A: Its IC50 is 18 µM.

Q: `CCCC=CCCCCCCC(=O)CC(=O)N[C@H]1CCOC1=O` [Example 16, N-(3-Oxo-10-tetradecenoyl)-L-homoserine lactone] was tested. Which IC50 [1] did it give?
A: The IC50 was 15 µM.

Q: For `CCCC(=O)CC(=O)N[C@H]1CCOC1=O` [OHHL, reference compound], which “inhibition of LPS induced TNF-α production by human PBMC, in words” value [3] is on record?
A: Its value is “difference in activity between OHHL and OdDHL is marked”.

Q: Which IC50 [1] does the source give for `CCCCCCCCCCCC(O)CC(=O)N[C@H]1CCOC1=O` (stereo partly drawn) [Example 22, N-(3-Hydroxytetradecanoyl)-L-homoserine lactone] here?
A: Its IC50 is 7 µM.

Q: With `CCCCCCC=CCCCC(O)CC(=O)N[C@H]1CCOC1=O` (stereo partly drawn) [Example 23, N-(3-Hydroxy-7-tetradecenoyl)-L-homoserine lactone] as the molecule, how does the IC50 [1] read?
A: The IC50 was 12 µM.

Q: How did the IC50 [1] turn out when `CCCC=CCCCCCCC(O)CC(=O)N[C@H]1CCOC1=O` (stereo partly drawn) [Example 25, N-(3-Hydroxy-10-tetradecenoyl)-L-homoserine lactone] was run?
A: Its IC50 is 20 µM.

Q: For `O=C(CCCCCCCCCCCBr)CC(=O)N[C@H]1CCOC1=O` [Example 12, N-(14-Bromo-3-oxotetradecanoyl)-L-homoserine lactone], which IC50 [1] is on record?
A: Its IC50 is 8 µM.

Q: `C=CCCCCCCCCCC(=O)CC(=O)N[C@H]1CCOC1=O` [Example 18, N-(3-Oxo-13-tetradecenoyl)-L-lactone homoserine] was tested. Which IC50 [1] did it give?
A: Its IC50 is 10 µM.

Q: With `CCCCCC(C)CCC(=O)CC(=O)N[C@H]1CCOC1=O` (stereo partly drawn) [Example 5, N-(6-Methyl-3-oxoundecanoyl)-L-homoserine lactone] as the molecule, how does the IC50 [1] read?
A: The IC50 was 5 µM.

Q: What about the IC50 ([2]; human PBMC source B) of the same molecule?
A: Its IC50 is 20 µM.

Q: How did the IC50 [1] turn out when `CCCCCCCCCCC(=O)CC(=O)N[C@H]1CCOC1=O` [Example 8, N-(3-Oxotridecanoyl)-L-homoserine lactone] was run?
A: Its IC50 is 4 µM.

Q: And the IC50 ([2]; human PBMC source B)?
A: The IC50 was 41 µM.

Q: And the IC50 ([2]; human PBMC source C)?
A: Its IC50 is 7 µM.

Q: What about the IC50 ([2]; human PBMC source D) of the same molecule?
A: Its IC50 is 25 µM.

Q: For `CC(C)CCCCCCC(=O)CC(=O)N[C@H]1CCOC1=O` [Example 3, N-(10-Methyl-3-oxoundecanoyl)-L-homoserine lactone], which IC50 [1] is on record?
A: Its IC50 is 8 µM.

Q: What about the IC50 ([2]; human PBMC source D) of the same molecule?
A: The IC50 was 25 µM.

Q: Which IC50 [1] does the source give for `C=CCCCCCCCCCC(O)CC(=O)N[C@H]1CCOC1=O` (stereo partly drawn) [Example 27, N-(3-Hydroxy-13-tetradecenoyl)-L-homoserine lactone] here?
A: The IC50 was 18 µM.

Q: For `CCC=CCCCCCCCC(O)CC(=O)N[C@H]1CCOC1=O` (stereo partly drawn) [Example 26, N-(3-Hydroxy-11-tetradecenoyl)-L-homoserine lactone], which IC50 [1] is on record?
A: Its IC50 is 20 µM.

Q: For “N-(3-Hydroxy-9-tetradecenoyl)-L-homoserine lactone [Example 24]”, which IC50 [1] is on record?
A: Its IC50 is 15 µM.
